Test results published in patent publication US8501924B2, “Nucleophosmin protein (NPM) mutants, corresponding gene sequences and uses thereof” (priority 2004, dated 2013).
Entries after “also recorded” stand apart in the source; their conditions may differ.

Experiments:
Crm1 [1] = target: T1, Crm1 (Homo sapiens, UniProt O14980); assay: Nuclear re-localization of NPM in leukaemic cells of NPMc+ AML patients (mutation A); assay type: cell-based; conditions: NPMc+ AML patient cells, leptomycin B 20 ng/ml
Experimental: Cells deriving from two patients with NPMc+AML (carrying the mutation A) and from OCI/AML3 cellular line were harvested in medium (10^6 cell/ml in 24-well plates) and incubated at 37° C. with 5% CO2 […]. After the incubation overnight with leptomycin B (20 ng/ml), the cells were washed with PBS and centrifuged. The cell pellet was fixed in B5 and paraffin for the immunostaining.
The NPM coloration of paraffin embedded sections of AML cases containing the mutation A was carried out with monoclonal anti-NPM antibodies followed by a Alexa 488 conjugated secondary (Molecular Probes, Oregon, USA); the nuclei were contra-stained with propidium iodide. The images were taken with a confocal microscope Zeiss LSM 510 (Carl Zeiss, Jena, Del.), using laser excitation wavelengths at 488 nm (for ALexa 488), 543 nm (for Texas Red and the propidium iodide) and 633 nm (for TO-PRO-3), respectively. The laser intensity tuning, diameter of pinholes, and configuration of the light detection were set to achieve the best signal/noise ratio and avoid fluorescence crossover. The images were then transferred to a SGI Octane workstation (Silicon graphics, Mountain View, Calif., USA) for further elaboration; 3D reconstruction was made with the shade or iso-surface method using the Imaris program (Bitplane, Zurich, CH).

Crm1 [2] = target: T1, Crm1; assay: Inhibition of Crm1-dependent nuclear exportation in transfected H1299 cells; assay type: cell-based; conditions: HI299 cells
Experimental: The H1299 cells were seeded on the surface of six-well plates 24 hours before transfection. 5 μg of expression vector encoding for wild type HA-NPM, GFP-NPM-mutant A, or both, were transfected using the precipitation method with calcium-phosphate. After 24 hours, the cells were treated with 20 nM leptomycin B, a Crml specific inhibitor (Sigma, St. Louis, Mo., USA) for 8 hours or not treated, respectively. The cells then were fixed in 4% paraformaldehyde for the immunofluorescence study.
The DAPI staining was used to visualise nucleuses of H1299 cells transfected with the GFP-NPM-mutant A and with GFP-NPM wt. For Flag-HA constructs, the fixed cells were made permeable with 0.2% Triton-X 100 (10 minutes) followed by blocking with 10% anti-goat serum (30 minutes). Then primary anti-HA antibody was added (1:1000, Roche Indianapolis, Ind., USA) for 1 hour followed by incubation for 30 minutes with the secondary Alexa-568 antibody (1:1000, Molecular Probes, Oregon, USA). The images were taken using a digital camera with the Spot 4.09 program (Diagnostic Instruments, Sterling Heights, Mich., USA).

Crm1 [3] = target: T1, Crm1; assay: Nuclear re-localization of mutant NPM in OCI/AML3 cells; assay type: cell-based; conditions: OCI/AML3, mutation A, LMB 20 ng/ml
Crm1 [4] = target: T2, Crm1 (Mus musculus, UniProt Q6P5F9); assay: Inhibition of Crm1-dependent nuclear exportation in NIH-3T3 cells transfected with eGFP-NPM constructs; assay type: cell-based, murine; conditions: for sub-cellular localization of NPM mutant proteins after treatment (confocal microscopy): transfected NIH3T3 cells (HI299 or NIH3T3), leptomycin B 20 ng/ml
T2 construct: endogenous in cells; host or cells: NIH-3T3 cells, transfected only with eGFP-NPM reporter constructs
Experimental: NIH-3T3 cells were transfected using Lipofectamin 2000 (Invitrogen Carlsbad, Calif., USA) following the manufacturer instructions. After 24 hours, the cells grown on the slide were incubated with cycloeximide (Merck Biosciences Ltd, Nottingham UK) 10 micro grams/ml (30 minutes) and leptomycin B (Merck Biosciences Ltd, Nottingham UK) 20 ng/ml (5 hours), or other Crm1 inhibitors such as ratjadons A and C (Alexis Biochemicals, Carlsbad, Calif., USA) 20 ng/ml (5 hours).
The cells were fixed in 4% paraformaldehyde (10 minutes) for immunofluorescence and confocal microscope analysis.
For “time course” experiments, transfected cells were transferred inside an Attofluor chamber (Molecular Probes, Eugene, Oreg., USA) and were observed using a MRC-1024 confocal apparatus (Biorad Cambridge, UK) assembled on an Olympus IMT-2 microscope. The images of a single section were recorded before and after the addition of leptomicin B, at 60 second intervals, using the time-series function of Laser-Sharp program (BioRad). The excitation wavelength was 488 nm and images were detected using a filter from 505 to 550 nm on the PMT2.
The images were processed and analysed using the well known ImageJ program (Rasband WS, Image J, U.S. National Institutes of Health, Bethesda, Md., USA, http://rsb.info.nih.gov/ij/, 1997-2005).
For western-blotting analyses of the sub-cellular distribution of GFP-NPM mutant A protein, NIH-3T3 cells transfected with GFP vector or with GFP-NPM mutant A, as described above, were incubated with leptomicin B 20 ng/ml (or with methanol as control) without cycloeximide for 3 or 6 hours. Then cells were harvested, washed with PBS and lysed in hypotonic buffer according to the method of Schreiber et al. (1989). The supernatant was preserved as cytoplasmic fraction. The pellet, containing nuclei, was again washed with the hypotonic buffer, then solubilised in a hypertonic buffer and boiled in a solution containing SDS before loading.
Equivalent dilutions (with the same cell number) of cytoplasmic and nuclear fractions were loaded, blotted on nitrocellulose and incubated with an anti-GFP monoclonal antibody (Roche, Indianapolis, Ind., USA) for Western-blot analysis of the distribution of GFP-NPM mutant A.

[5] = NIH-3T3 cells, with and without LMB

T2 sequence (Q6P5F9 whole entry): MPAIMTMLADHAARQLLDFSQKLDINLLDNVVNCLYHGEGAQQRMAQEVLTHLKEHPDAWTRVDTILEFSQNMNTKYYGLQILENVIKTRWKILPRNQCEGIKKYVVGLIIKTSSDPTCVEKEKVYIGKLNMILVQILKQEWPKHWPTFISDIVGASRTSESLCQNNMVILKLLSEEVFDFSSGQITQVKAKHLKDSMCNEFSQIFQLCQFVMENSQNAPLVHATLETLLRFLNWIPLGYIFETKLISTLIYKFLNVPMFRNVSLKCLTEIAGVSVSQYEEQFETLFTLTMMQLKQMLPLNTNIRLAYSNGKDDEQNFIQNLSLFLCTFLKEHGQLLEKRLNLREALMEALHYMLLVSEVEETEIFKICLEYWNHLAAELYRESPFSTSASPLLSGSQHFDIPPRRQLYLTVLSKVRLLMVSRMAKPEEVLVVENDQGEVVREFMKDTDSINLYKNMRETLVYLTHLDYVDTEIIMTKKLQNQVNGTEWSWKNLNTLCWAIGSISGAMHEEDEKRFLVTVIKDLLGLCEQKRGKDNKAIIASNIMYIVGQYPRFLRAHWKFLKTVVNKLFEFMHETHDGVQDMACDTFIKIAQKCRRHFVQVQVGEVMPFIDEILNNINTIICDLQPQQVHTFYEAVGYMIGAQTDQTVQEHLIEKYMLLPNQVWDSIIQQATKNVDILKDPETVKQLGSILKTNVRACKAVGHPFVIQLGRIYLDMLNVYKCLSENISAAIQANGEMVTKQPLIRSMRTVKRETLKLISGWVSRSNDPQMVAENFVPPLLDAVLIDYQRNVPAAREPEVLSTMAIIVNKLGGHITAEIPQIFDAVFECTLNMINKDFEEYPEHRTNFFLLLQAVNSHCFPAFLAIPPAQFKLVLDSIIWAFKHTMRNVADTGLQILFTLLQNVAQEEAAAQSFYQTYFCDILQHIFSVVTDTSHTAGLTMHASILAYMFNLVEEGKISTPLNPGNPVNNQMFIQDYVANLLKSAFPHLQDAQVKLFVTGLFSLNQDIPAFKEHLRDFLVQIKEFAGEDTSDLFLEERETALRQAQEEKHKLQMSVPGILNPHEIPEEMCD
T1 sequence (O14980 whole entry): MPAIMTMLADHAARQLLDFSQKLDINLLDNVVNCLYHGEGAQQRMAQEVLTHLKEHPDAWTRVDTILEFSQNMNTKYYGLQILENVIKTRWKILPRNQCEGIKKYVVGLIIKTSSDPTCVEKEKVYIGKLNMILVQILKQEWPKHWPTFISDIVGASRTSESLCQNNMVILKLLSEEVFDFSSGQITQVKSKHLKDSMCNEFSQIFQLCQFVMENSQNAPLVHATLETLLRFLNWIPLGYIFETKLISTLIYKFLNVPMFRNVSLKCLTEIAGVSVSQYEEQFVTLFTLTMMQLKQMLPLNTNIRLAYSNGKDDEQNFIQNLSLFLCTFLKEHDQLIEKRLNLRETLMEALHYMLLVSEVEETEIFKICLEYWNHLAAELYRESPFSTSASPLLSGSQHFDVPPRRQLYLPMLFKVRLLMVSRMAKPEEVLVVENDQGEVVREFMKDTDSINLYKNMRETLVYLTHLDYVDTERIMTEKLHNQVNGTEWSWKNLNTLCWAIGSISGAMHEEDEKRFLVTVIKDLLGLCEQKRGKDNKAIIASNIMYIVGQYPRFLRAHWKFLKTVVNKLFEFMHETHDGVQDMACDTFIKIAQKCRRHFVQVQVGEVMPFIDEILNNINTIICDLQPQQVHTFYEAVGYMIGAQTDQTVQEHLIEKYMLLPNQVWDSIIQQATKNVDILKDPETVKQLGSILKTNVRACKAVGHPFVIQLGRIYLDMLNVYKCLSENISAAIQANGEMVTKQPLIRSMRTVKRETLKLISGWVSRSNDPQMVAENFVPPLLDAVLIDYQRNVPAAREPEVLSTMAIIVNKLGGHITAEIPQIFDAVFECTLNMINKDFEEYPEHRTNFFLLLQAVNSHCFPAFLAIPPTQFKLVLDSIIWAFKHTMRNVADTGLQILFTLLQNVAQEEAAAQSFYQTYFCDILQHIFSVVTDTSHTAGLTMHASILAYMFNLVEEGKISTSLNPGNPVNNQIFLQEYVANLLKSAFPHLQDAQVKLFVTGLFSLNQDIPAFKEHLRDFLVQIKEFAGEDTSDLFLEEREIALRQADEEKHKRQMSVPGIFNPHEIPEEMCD

Compound: CCC(=C/[C@H](C)C/C=C/C(C)=C/[C@@H](C)C(=O)[C@@H](C)[C@H](O)[C@@H](C)C/C(C)=C/C(=O)O)/C=C/[C@@H]1OC(=O)C=C[C@@H]1C [Leptomycin B, leptomycin B]
- NPM localization in purified leukaemic cells (376 staining, confocal) (Crm1 [1]): NPM is in nucleus again
- localization of eGFP NPM mutants A to D (Crm1 [2]; in the presence of LMB 20 nM, 8 hours): completely replaced in the nucleus in the presence of LMB
- localization of eGFP-NPMwt (Crm1 [2]; with and without LMB): localized in nucleoli both in the presence and in the absence of LMB
- NPM localization in OCI/AML3 cells (376 staining) (Crm1 [3]): re-localization of NPM in the nucleoplasm
- re-localization of type E NPM mutant (tryptophan 288 kept) (Crm1 [4]; NIH-3T3 cells, after Leptomicin B): not only at nucleoplasma but also at nucleolus level
- mutant type A re-localized in nucleus (Crm1 [4]; NIH-3T3 cells, eGFP-NPMmutA, 20 minutes after LMB): About 50%
- time for the whole re-localization process to be completed (Crm1 [4]; NIH-3T3 cells, eGFP-NPMmutA, LMB): 1 h
- Western blot sub-cellular distribution of GFP-NPM mutant A (Crm1 [4]; NIH-3T3 cells, leptomicin B 20 ng/ml, 3 or 6 hours, no cycloeximide): progressively accumulates in the pellet containing nucleuses
- eGFP-NPMmutA fluorescence in regions of interest over time (Crm1 [4]; NIH-3T3 cells, time course after addition of LMB): reduction of fluorescence in cytoplasm and Golgi area and concomitant fluorescence increase in nucleoplasm
- localization of GFP-NPMwt (Crm1 [4]; [5]): localizes in the nucleoli both in the presence and in the absence of LMB
- localization of NPM mut A no-NES (Crm1 [4]; [5]): localized in the nucleoplasm both in presence and in absence of LMB
- localization of mutant A with both tryptophans re-inserted (C288W+A290W) (Crm1 [4]; NIH-3T3 cells, with and without Leptomicin B): locates completely in nucleoli, independently from the presence of Leptomicin B
- sub-cellular localization of NPM mutant proteins after treatment (confocal microscopy) (Crm1 [4]; listed as LMB): repositions in nucleoplasm
- sub-cellular localization of NPM mutant proteins after treatment (confocal microscopy) (Crm1 [4]; listed as Leptomicin B): re-localized from the cytoplasmic to the nuclear compartment (nucleoplasm); also recorded: re-localized in the nucleus and, specifically, in nucleoplasm
